Test results published in patent US11999758B2, “Inhibitors of the YAP/TAZ-TEAD interaction and their use in the treatment of cancer” (INVENTIVA, priority 2018, dated 2024).

Target: T1, YAP-TEAD interaction (Homo sapiens, UniProt P28347)
T1 construct: expressed in transfected cells; host or cells: HEK293 GripTite 293 MSR (Invitrogen R795-07)
Assay: Cell-based TEAD-GAL4 transactivation assay (luciferase reporter)
Conditions: HEK293 cells transfected with TEAD1-Gal4, YAP mutant (S127A, S397A) and luciferase reporter, compounds 0.1 μM to 30 μM; for Emax: HEK293, 24 h, read-out: TEAD-GAL4 Transactivation activity Max Act; for IC50 / TEAD-GAL4 Transactivation activity Max Act: 24 h
Protocol: To identify inhibitors of YAP-TEAD interaction, a transient transactivation assay was carried out on HEK293 cell line (HEK293 GripTite™ 293 MSR (Invitrogen R795-07)) using plasmids containing the full length TEAD1 sequences, the full length YAP mutant (S127A, S397A) and a luciferase gene reporter. All expression constructs were performed into a pSG5 backbone plasmid in which the SV40 promoter was replaced by the CMV promoter. The TEAD1 construct was prepared by cloning the full-length human TEAD1 cDNA in fusion with the Gal4 DNA Binding Domain (AA 1-148) into pSG5_CMV to create the TEAD1 (FL)_hum_pSG5Gal4_CMV. The full-length YAP mutant (S127A, S397A) was also cloned into pSG5_CMV to create the YAP (FL)_hum_pSG5_mutS127A_S397A_CMV. The reporter plasmid GAL4(5×RE)_TK(−105/+56)_pGL3-Basic contains 5 copies of the GAL4 responsive element (5′-TCGGAGGACAGTACTCC-3′) upstream of the thymidine kinase (TK) promoter (−105/+56) inserted in a pGL3-Basic vector. To evaluate the selectivity of our compounds in blocking the YAP-TEAD interaction, a counter-screening protein-protein interaction transactivation assay was also established. Briefly, two other expression plasmids, the pBD-P53 which expresses the P53 (AA 72-390) in fusion with Gal4 and the pAD-SV40T which expresses the SV40 large T antigen (AA 84-708,AgT), were created. HEK293 cells were seeded at 5×10^4 cells/well in 96 well plates (assay plates) in DMEM medium containing 4.5 g/L D-glucose, 10% high inactivated (HI) fetal bovine serum 1% Glutamax, 1% non-essential amino acid and 1% sodium pyruvate and 0.5% penicillin/streptomycin at 37° C. in a humidified atmosphere of 8% CO2. After 24 h, transfections were performed using Jet-PEI as transfectant (101B-010 Polyplus Transfection), according to the instructions of the manufacturer (N/P=10) and a ratio YAP/TEAD=10 (per well: 50 ng of YAP(FL), 5 ng of TEAD(FL) and 50 ng of reporter plasmid). Six hours after cell transfection, the plates (‘assay plate’) were washed with 100 μl PBS per well and cells were treated with compounds in semi-log from 0.1 μM to 30 μM or DMSO 0.5% as control in DMEM, 4.5 g/L D-Glucose without phenol red, 0.3% BSA, 1% glutamax, 1% NEAA, 1% sodium pyruvate. 24 h later, the luciferase activity was determined after addition of 100 μl of Steady Glo™ luciferase assay system (Promega E2550) according to the manufacturer's directions. Luciferase activity in cell extracts was measured by reading luminescence using the Envision device.
The cellular response was determined by fitting the concentration response curves using a 3-parameter curve fit equation and determining the concentration that inhibited the luciferase activity by 50%.

T1 sequence (P28347 whole entry): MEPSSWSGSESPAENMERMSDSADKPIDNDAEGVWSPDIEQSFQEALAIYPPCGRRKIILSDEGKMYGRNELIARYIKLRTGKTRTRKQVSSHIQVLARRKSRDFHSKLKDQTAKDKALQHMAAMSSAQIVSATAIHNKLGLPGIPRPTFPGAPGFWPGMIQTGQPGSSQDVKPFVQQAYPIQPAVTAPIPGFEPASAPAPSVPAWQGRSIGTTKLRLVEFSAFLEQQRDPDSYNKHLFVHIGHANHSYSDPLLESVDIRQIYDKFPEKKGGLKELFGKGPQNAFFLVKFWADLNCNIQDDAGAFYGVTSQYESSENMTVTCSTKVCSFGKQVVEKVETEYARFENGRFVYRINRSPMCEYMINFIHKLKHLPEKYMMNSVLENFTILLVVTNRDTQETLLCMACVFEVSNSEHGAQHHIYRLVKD

Structure (SMILES)	Emax [%]	IC50 [nM]	TEAD-GAL4 Transactivation activity Max Act [%]
Cc1csc2c(N3N=C(c4ccc5c(c4)COB5O)CCC3C)ncnc12 (single isomer, unassigned; (+)) [Ex119, (+) 4-[6-(1-hydroxy-3H-2,1-benzoxaborol-5-yl)-3-methyl-4,5-dihydro-3H-pyridazin-2-yl]-7-methyl-thieno[3,2-d]pyrimidine]	77	430	–
Cc1csc2c(N3N=C(c4ccc5c(c4)COB5O)CCC3C)ncnc12 (single isomer, unassigned; (-)) [Ex120, (−) 4-[6-(1-hydroxy-3H-2,1-benzoxaborol-5-yl)-3-methyl-4,5-dihydro-3H-pyridazin-2-yl]-7-methyl-thieno[3,2-d]pyrimidine]	–	500	84
COc1cc(C2=NN(c3ncnc4c(OC)cccc34)C(C)CC2)ccc1B(O)O (single isomer, unassigned; isomer 1) [Ex124, [2-methoxy-4-[2-(8-methoxyquinazolin-4-yl)-3-methyl-4,5-dihydro-3H-pyridazin-6-yl]phenyl]boronic acid (isomer 1)]	93	7270	–
COc1cc(C2=NN(c3ncnc4c(OC)cccc34)C(C)CC2)ccc1B(O)O (single isomer, unassigned; isomer 2) [Ex125, [2-methoxy-4-[2-(8-methoxyquinazolin-4-yl)-3-methyl-4,5-dihydro-3H-pyridazin-6-yl]phenyl]boronic acid (isomer 2)]	–	3520	86
CCN(/N=C/c1ccc(B(O)O)c(OC)c1)c1ncnc2c(C)csc12 [Ex62, [4-[(E)-[ethyl-(7-methylthieno[3,2-d]pyrimidin-4-yl)hydrazono]methyl]-2-methoxy-phenyl]boronic acid]	58	990	–
CCN(/N=C/c1ccc(B(O)O)c(OC)c1)c1ncnc2ccsc12 [Ex63, [4-[(E)-[ethyl(thieno[3,2-d]pyrimidin-4-yl)hydrazono]methyl]-2-methoxy-phenyl]boronic acid]	63	690	–
CCN(/N=C/c1ccc(B(O)O)c(OC)c1)c1ncnc2ncsc12 [Ex64, [4-[(E)-[ethyl(thiazolo[4,5-d]pyrimidin-7-yl)hydrazono]methyl]-2-methoxy-phenyl]boronic acid]	96	2760	–
CCN(/N=C/c1ccc(B(O)O)c(OC)c1)c1ncnc2occc12 [Ex65, [4-[(E)-[ethyl(furo[2,3-d]pyrimidin-4-yl)hydrazono]methyl]-2-methoxy-phenyl]boronic acid]	92	1980	–
CCN(/N=C/c1ccc(B(O)O)c(OC)c1)c1ncnc2c1ccn2C [Ex66, [4-[(E)-[ethyl-(7-methylpyrrolo[2,3-d]pyrimidin-4-yl)hydrazono]methyl]-2-methoxy-phenyl]boronic acid]	87	2150	–
COc1cc(/C=N/N(CC(C)C)c2ncnc3c(C)csc23)ccc1B(O)O [Ex67, [4-[(E)-[isobutyl-(7-methylthieno[3,2-d]pyrimidin-4-yl)hydrazono]methyl]-2-methoxy-phenyl]boronic acid]	89	3820	–
COc1cc(/C=N/N(CC(C)C)c2nc(C)nc3ccsc23)ccc1B(O)O [Ex68, [4-[(E)-[isobutyl-(2-methylthieno[3,2-d]pyrimidin-4-yl)hydrazono]methyl]-2-methoxy-phenyl]boronic acid]	84	2630	–
COc1cc(/C=N/N(CC(C)C)c2ncnc3cc(C)sc23)ccc1B(O)O [Ex69, [4-[(E)-[isobutyl-(6-methylthieno[3,2-d]pyrimidin-4-yl)hydrazono]methyl]-2-methoxy-phenyl]boronic acid]	92	2340	–
COCCN(/N=C/c1ccc(B(O)O)c(OC)c1)c1ncnc2ccsc12 [Ex70, [2-methoxy-4-[(E)-[2-methoxyethyl(thieno[3,2-d]pyrimidin-4-yl) hydrazono]methyl]phenyl]boronic acid]	87	1880	–
